Key:
[1] = system: Septoria tritici (ATCC 26517); assay: Minimum Inhibitory Concentration (MIC) vs. Septoria tritici; format: cell-based; conditions: Zymoseptoria tritici, ATCC26517, 168 h; S. tritici ATCC 26517; 50% growth reduction; 7 days at 22 °C; read-out: Septoria Rating (MIC)
Protocol: C. Minimum Inhibitory Concentration (MIC) vs. Septoria Tritici Compounds were assessed for their ability to inhibit the growth of a common strain of the fungal plant pathogen Septoria tritici (ATCC 26517) using a procedure based on a Clinical and Laboratory Standards Institute (CLSI) microdilution assay protocol for filamentous fungi. Stock solutions of the test compounds and standards were prepared in DMSO at 6400 μg/mL. Each stock solution was used to prepare a 2-fold dilution series ranging from 16 to 0.016 μg/mL (total of 11 compound concentrations) in RPMI-1640 (Roswell Park Memorial Institute) medium containing 3-(N-morpholino)propanesulfonic acid (MOPS) buffer and 2% DMSO. A 100 μL aliquot of the dilutions was added to columns 1 (16 μg/mL compound) through 11 (0.016 μg/mL compound) of a 96-well microtiter plate. This format was replicated in a second row of the microtiter plate. Thus, each microtiter plate could include 11 concentrations of four test or control compounds replicated twice. A 100 μL aliquot of RPMI-1640/MOPS/2% DMSO medium was added to column 12 (no compound control) of the microtiter plate. A fresh culture of S. tritici was used to prepare a solution of approximately 5×10^4 colony-forming units per milliliter (cfu/mL) in RPMI/MOPS medium without DMSO. A 100 μL aliquot of this solution was added to all 96 wells in the microtiter plate. […]

[2] = system: Puccinia recondita tritici = Puccinia triticina (PUCCRT); assay: Fungicidal activity vs. leaf rust on wheat plants; format: in vivo; conditions: wheat (Yuma) sprayed at 50 ppm, inoculated the following day, rated 7-9 days later, read-out: Puccinia Rating (% Disease Control @ 50 ppm)
Procedure, shortened: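 Wheat seedlings sprayed to wet with compound at 50 ppm in 10% acetone/90% Triton X100 water (~1500 L/ha), then inoculated next day with P. triticina spores and held humid overnight.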

MIC [1]: ≤ 0.5 µg/mL
Compound: OC(Cn1cnnn1)(c1ccc(F)cc1F)C(F)(F)c1ccc(OCc2ccccc2)cn1 (centres unmarked) [Compound 30, 1-(5-(Benzyloxy)pyridin-2-yl)-2-(2,4-difluorophenyl)-1,1-difluoro-3-(1H-tetrazol-1-yl)propan-2-ol]
pest or weed control at 50 ppm [2]: 80 to 100%
